Read-outs that look alike come from different tables or passages of the source. Starred links: 1 amine or outer side, 2 acyl side, 3 side chain; linkers in the order of their positions; H or OH if unused. Residues, ends and D or L forms follow the SMILES beside them. Groups on a side chain read outwards from the residue. *: point of attachment. Sphinganine = CCCCCCCCCCCCCCC[C@@H](O)[C@H](CO)N*; CO = O=C([*:1])[*:2] Some results are limits rather than exact numbers.

13 molecules from patent US20150045291A1, “LIPOPEPTIDE CONJUGATES COMPRISING SPHINGOLIPID AND HIV GP41 DERIVED PEPTIDES” (priority 2012, published 2015) can be followed below.

The test has as its system fully infectious HIV-1 HXB2. Particulars: for IC90: read-out: IC90 (nM), […].
[1] abbreviates: read-out: IC50 (inhibitory concentration at 50% infectivity), TZM-bl cells, fully contagious HXB2 HIV-1.
The mark [2] stands for this setting: fully infectious HIV-1 system (Table 2).
Where [3] appears, read: read-out: IC50 (nM), […], fully infectious HIV-1 system (Table 3).
[4] abbreviates: fully infectious HIV-1 system (Table 3).

As to `CCCCCCCCCCCCCCC[C@@H](O)[C@H](CO)NC(=O)NCCCC[C@H](NC(=O)[C@H](CC(N)=O)NC(=O)[C@H](CCCCN)NC(=O)[C@H](CCC(=O)O)NC(=O)[C@H](CCC(N)=O)NC(=O)[C@H](CCC(N)=O)NC(=O)[C@H](CC(N)=O)NC(=O)[C@H](CCC(N)=O)NC(=O)[C@H](CO)NC(=O)[C@H](CCC(=O)O)NC(=O)[C@H](CCC(=O)O)NC(=O)[C@@H](NC(=O)[C@H](CC(C)C)NC(=O)[C@H](CO)NC(=O)[C@H](Cc1c[nH]cn1)NC(=O)[C@@H](NC(=O)[C@H](CC(C)C)NC(=O)[C@H](CO)NC(=O)[C@@H](NC(=O)[C@@H](N)Cc1ccc(O)cc1)[C@@H](C)O)[C@@H](C)CC)[C@@H](C)CC)C(N)=O` [DP19K-sphing] (H-YTSLIHSLIEESQNQQEKNK([CO-Sphinganine])-NH2), under setting [1], the IC50 is 350 nM.
As to `CC[C@H](C)[C@H](NC(=O)[C@H](CC(C)C)NC(=O)[C@H](CO)NC(=O)[C@H](Cc1c[nH]cn1)NC(=O)[C@@H](NC(=O)[C@H](CC(C)C)NC(=O)[C@H](CO)NC(=O)[C@@H](NC(=O)[C@@H](N)Cc1ccc(O)cc1)[C@@H](C)O)[C@@H](C)CC)C(=O)N[C@@H](CCC(=O)O)C(=O)N[C@@H](CCC(=O)O)C(=O)N[C@@H](CO)C(=O)N[C@@H](CCC(N)=O)C(=O)N[C@@H](CC(N)=O)C(=O)N[C@@H](CCC(N)=O)C(=O)N[C@@H](CCC(N)=O)C(=O)N[C@@H](CCC(=O)O)C(=O)N[C@@H](CCCCN)C(=O)N[C@@H](CC(N)=O)C(=O)N[C@@H](CCCCN)C(N)=O` [DP19K] (H-YTSLIHSLIEESQNQQEKNK-NH2; C-terminus assumed), the IC50 under setting [2] stood at 2210 ± 507 nM.
`CC[C@H](C)[C@H](NC(=O)CNC(=O)[C@H](Cc1c[nH]c2ccccc12)NC(=O)[C@@H](NC(=O)[C@@H](NC(=O)[C@H](CC(C)C)NC(=O)[C@H](CCC(N)=O)NC(=O)[C@H](CC(C)C)NC(=O)[C@@H](N)CC(C)C)[C@@H](C)O)C(C)C)C(=O)N[C@@H](CCCCN)C(=O)N[C@@H](CCC(N)=O)C(=O)N[C@@H](CC(C)C)C(=O)N[C@@H](CCC(N)=O)C(=O)N[C@@H](C)C(N)=O` [N14, LLQLTVWGIKQLQA] (H-LLQLTVWGIKQLQA-NH2; C-terminus assumed) had an IC50 under setting [2] above 4000 nM.
`CC[C@H](C)[C@H](NC(=O)[C@H](CCC(N)=O)NC(=O)[C@H](CC(C)C)NC(=O)[C@H](Cc1c[nH]c2ccccc12)NC(=O)[C@H](CC(C)C)NC(=O)[C@@H](NC(=O)[C@H](CCC(N)=O)NC(=O)[C@H](CC(C)C)NC(=O)[C@H](CCCNC(=N)N)NC(=O)[C@H](C)NC(=O)[C@@H](NC(=O)[C@H](CCCCN)NC(=O)[C@@H](N)CCC(N)=O)[C@@H](C)CC)[C@@H](C)O)C(=O)NCC(=O)N[C@H](C(=O)N[C@@H](CC(C)C)C(=O)N[C@@H](CC(C)C)C(N)=O)C(C)C` [N17 scrambled, QKIARLQTLWLQIGVLL] (H-QKIARLQTLWLQIGVLL-NH2; C-terminus assumed) showed an IC50 under setting [2] above 4000 nM.
Still for that read-out and setting: the same measure for `CC[C@H](C)[C@H](NC(=O)CNC(=O)[C@H](Cc1c[nH]c2ccccc12)NC(=O)[C@@H](NC(=O)[C@@H](NC(=O)[C@H](CC(C)C)NC(=O)[C@H](CCC(N)=O)NC(=O)[C@H](CC(C)C)NC(=O)[C@@H](N)CC(C)C)[C@@H](C)O)C(C)C)C(=O)N[C@@H](CCCCN)C(=O)N[C@@H](CCC(N)=O)C(=O)N[C@@H](CC(C)C)C(=O)N[C@@H](CCC(N)=O)C(=O)N[C@@H](C)C(=O)N[C@@H](CCCNC(=N)N)C(=O)N[C@H](C(=O)N[C@@H](CC(C)C)C(=O)N[C@@H](CCCCN)C(N)=O)[C@@H](C)CC` [N17K, LLQLTVWGIKQLQARILK] (H-LLQLTVWGIKQLQARILK-NH2; C-terminus assumed): above 4000 nM.
Consider `CCCCCCCCCCCCCCC[C@@H](O)[C@H](CO)NC(=O)NCCCC[C@H](NC(=O)[C@H](CC(C)C)NC(=O)[C@@H](NC(=O)[C@H](CCCNC(=N)N)NC(=O)[C@H](C)NC(=O)[C@H](CCC(N)=O)NC(=O)[C@H](CC(C)C)NC(=O)[C@H](CCC(N)=O)NC(=O)[C@H](CCCCN)NC(=O)[C@@H](NC(=O)CNC(=O)[C@H](Cc1c[nH]c2ccccc12)NC(=O)[C@@H](NC(=O)[C@@H](NC(=O)[C@H](CC(C)C)NC(=O)[C@H](CCC(N)=O)NC(=O)[C@H](CC(C)C)NC(=O)[C@@H](N)CC(C)C)[C@@H](C)O)C(C)C)[C@@H](C)CC)[C@@H](C)CC)C(N)=O` [N17K-sphing, LLQLTVWGIKQLQARILK-Sphinganine] (H-LLQLTVWGIKQLQARILK([CO-Sphinganine])-NH2), for which the IC50 is, setting by setting: under setting [2], 291 ± 102 nM; under setting [1], 287 nM.
In the case of `CC(C)C[C@H](NC(=O)[C@H](CCCNC(=N)N)NC(=O)[C@H](CCCNC(=N)N)NC(=O)[C@H](C)NC(=O)[C@H](CCC(N)=O)NC(=O)[C@H](CC(N)=O)NC(=O)[C@H](CCC(N)=O)NC(=O)[C@H](CCCCN)NC(=O)[C@H](CO)NC(=O)CNC(=O)[C@H](Cc1c[nH]c2ccccc12)NC(=O)[C@@H](NC(=O)[C@H](CO)NC(=O)[C@H](CC(C)C)NC(=O)[C@H](CCC(N)=O)NC(=O)[C@H](CCC(=O)O)NC(=O)[C@@H](N)CC(C)C)C(C)C)C(N)=O` [N17mut (a, d), LEQLSVWGSKQNQARRL] (H-LEQLSVWGSKQNQARRL-NH2; C-terminus assumed), the IC50 under setting [2] is above 4000 nM.
On the same count and under the same terms, as for `CC[C@H](C)[C@H](NC(=O)[C@H](CCCNC(=N)N)NC(=O)[C@H](C)NC(=O)[C@H](CC(C)C)NC(=O)[C@H](CC(C)C)NC(=O)[C@H](CCC(N)=O)NC(=O)[C@H](CCCCN)NC(=O)[C@@H](NC(=O)[C@H](CCCCN)NC(=O)[C@H](Cc1c[nH]c2ccccc12)NC(=O)[C@H](CCC(N)=O)NC(=O)[C@@H](NC(=O)[C@H](CC(C)C)NC(=O)[C@H](CCC(N)=O)NC(=O)[C@H](CC(C)C)NC(=O)[C@@H](N)CCC(=O)O)[C@@H](C)O)[C@@H](C)CC)C(=O)N[C@@H](CC(C)C)C(=O)N[C@@H](CCCCN)C(N)=O` [N17mut (e, g) K, ELQLTQWKIKQLLARILK] (H-ELQLTQWKIKQLLARILK-NH2; C-terminus assumed), the figure is above 4000 nM; as for `CCCCCCCCCCCCCCC[C@@H](O)[C@H](CO)NC(=O)NCCCC[C@H](NC(=O)[C@H](CC(C)C)NC(=O)[C@@H](NC(=O)[C@H](CCCNC(=N)N)NC(=O)[C@H](C)NC(=O)[C@H](CC(C)C)NC(=O)[C@H](CC(C)C)NC(=O)[C@H](CCC(N)=O)NC(=O)[C@H](CCCCN)NC(=O)[C@@H](NC(=O)[C@H](CCCCN)NC(=O)[C@H](Cc1c[nH]c2ccccc12)NC(=O)[C@H](CCC(N)=O)NC(=O)[C@@H](NC(=O)[C@H](CC(C)C)NC(=O)[C@H](CCC(N)=O)NC(=O)[C@H](CC(C)C)NC(=O)[C@@H](N)CCC(=O)O)[C@@H](C)O)[C@@H](C)CC)[C@@H](C)CC)C(N)=O` [N17mut (e, g) K-sphing, ELQLTQWKIKQLLARILK-Sphinganine] (H-ELQLTQWKIKQLLARILK([CO-Sphinganine])-NH2), 120 ± 40 nM.
In the case of `CC[C@H](C)[C@H](NC(=O)[C@H](CCC(=O)O)NC(=O)[C@H](CCCNC(=N)N)NC(=O)[C@H](CC(=O)O)NC(=O)[C@H](Cc1c[nH]c2ccccc12)NC(=O)[C@H](CCC(=O)O)NC(=O)[C@H](CCSC)NC(=O)[C@H](Cc1c[nH]c2ccccc12)NC(=O)[C@@H](NC(=O)[C@@H](N)[C@@H](C)O)[C@@H](C)O)C(=O)N[C@@H](CC(N)=O)C(=O)N[C@@H](CC(N)=O)C(=O)N[C@@H](Cc1ccc(O)cc1)C(=O)N[C@H](C(=O)N[C@@H](CCCCN)C(N)=O)[C@@H](C)O` [PBDK, TTWMEWDREINNYTK] (H-TTWMEWDREINNYTK-NH2; N-terminus and C-terminus assumed), the IC50 under setting [3] was 5350 ± 1700 nM. Under setting [4], the IC90 is above 10000 nM.
As for `CCCCCCCCCCCCCCC[C@@H](O)[C@H](CO)NC(=O)NCCCC[C@H](NC(=O)[C@@H](NC(=O)[C@H](Cc1ccc(O)cc1)NC(=O)[C@H](CC(N)=O)NC(=O)[C@H](CC(N)=O)NC(=O)[C@@H](NC(=O)[C@H](CCC(=O)O)NC(=O)[C@H](CCCNC(=N)N)NC(=O)[C@H](CC(=O)O)NC(=O)[C@H](Cc1c[nH]c2ccccc12)NC(=O)[C@H](CCC(=O)O)NC(=O)[C@H](CCSC)NC(=O)[C@H](Cc1c[nH]c2ccccc12)NC(=O)[C@@H](NC(=O)[C@@H](N)[C@@H](C)O)[C@@H](C)O)[C@@H](C)CC)[C@@H](C)O)C(N)=O` [PBDK-Sphing, TTWMEWDREINNYTK-Sphinganine] (H-TTWMEWDREINNYTK([CO-Sphinganine])-NH2; N-terminus assumed), the IC50 under setting [3] was found to be 467 ± 140 nM. The IC90 under setting [4] amounted to 1090 ± 100 nM.
On the same counts, the results for `CCCCCCCCCCCCCCC[C@@H](O)[C@H](CO)NC(=O)NCCCC[C@H](NC(=O)[C@H](CC(N)=O)NC(=O)[C@H](Cc1c[nH]c2ccccc12)NC(=O)[C@H](CCSC)NC(=O)[C@H](Cc1ccc(O)cc1)NC(=O)[C@H](CC(N)=O)NC(=O)[C@@H](NC(=O)[C@H](CC(=O)O)NC(=O)[C@H](CCC(=O)O)NC(=O)[C@H](CCCNC(=N)N)NC(=O)[C@H](Cc1c[nH]c2ccccc12)NC(=O)[C@@H](NC(=O)[C@H](CCC(=O)O)NC(=O)[C@@H](NC(=O)[C@@H](N)[C@@H](C)O)[C@@H](C)O)[C@@H](C)CC)[C@@H](C)O)C(N)=O` [Scrambled-Sphing, TTEIWREDTNYMWNK-sphing] (H-TTEIWREDTNYMWNK([CO-Sphinganine])-NH2; N-terminus assumed) are 895 ± 70 nM and 6260 ± 3670 nM.
Take `CCCCCCCCCCCCCCC[C@@H](O)[C@H](CO)NC(=O)N[C@@H](CC(C)C)C(=O)N[C@@H](CC(C)C)C(=O)N[C@@H](CCC(N)=O)C(=O)N[C@@H](CC(C)C)C(=O)N[C@H](C(=O)N[C@H](C(=O)N[C@@H](Cc1c[nH]c2ccccc12)C(=O)NCC(=O)N[C@H](C(=O)N[C@@H](CCCCN)C(=O)N[C@@H](CCC(N)=O)C(=O)N[C@@H](CC(C)C)C(=O)N[C@@H](CCC(N)=O)C(=O)N[C@@H](C)C(N)=O)[C@@H](C)CC)C(C)C)[C@@H](C)O` [Sphing-N14, Sphinganine-LLQLTVWGIKQLQA] ({Sphinganine-CO}-LLQLTVWGIKQLQA-NH2): the IC50 under setting [2] is 500 ± 100 nM.
